The structures appear in SMILES notation. Several values for one entry are separate records, joined by “and”; a condition that tells them apart may be missing. Equal entries are not always repeated. Where two headings read alike, the source gives them in different places.

Consider 8 compounds from US20070208087A1, “Compounds, compositions and methods for the treatment of inflammatory diseases” (priority 2001, published 2007).

Format in all cases: cell-based
For one experiment, the system named is microglia. As to the kind of experiment: Ranking of NO release inhibition (Example 12). The settings on record: Microglia, ranking table. An excerpt:
The bis- and tris-dihydroxyaryl compounds were ranked in order of effectiveness for the inhibition of NO release as set out in Table 8.

In experiment [1] the test system is EOC 13.31 microglial cells. Description: NO release inhibition screen in LPS/IFNγ stimulated microglia, Griess reaction at 48 hours (Example 7). The settings on record: for μM NO release Avg / % inhibition / inhibition at 50 µM: 50 uM + 10 μg/ml LPS/10 ng/ml IFNγ, 48 hours; for % inhibition: 50 µM; for inhibition at 50 µM: Microglia, 48 h. How it is done:
In this experiment, additional bis- and tris-dihydroxyaryl compounds were screened for their ability to inhibit nitric oxide release from microglial cells. Microglial cells stimulated with LPS/IFNγ release nitric oxide. […] This is a continuation of screening experiments. EOC 13.31 microglial cells were plated into 96 well plates. At 24 hours and at confluency, cells were treated with 10 μg/ml LPS/10 ng/ml IFNγ+50 uM bis- and tris-dihydroxyaryl compounds.
On the technique in general: The Griess reaction detects nitrite, a stable product of nitric oxide.

The subject of experiment [2] is TNF-α release from microglia. Description: TNF-α release from LPS/IFNγ stimulated microglia, TNF-α ELISA (Example 11). The settings on record: 50 uM compound, TNF-α release, 10 ug LPS and 10 ng IFNγ, 24 hours; for % inhibition: individual replicates, 50 µM; for inhibition at 50 µM: Microglia, 24 h, read-out: Avg % Inhibition. How it is done: Also, bis- and tris-dihydroxyaryl compound's ability to inhibit NO release strongly supports their interference with the inflammatory cascade and utlimately inhibition of inflammation. Microglia cells were plated at 1×10^5 cells/ml into 96 well plates. At day three, they were treated with 50 μM bis- and tris-dihydroxyaryl compound for 1 hour and then exposed to 10 μg/ml LPS+10 ng/ml IFNγ for 24 hours. 10 μl of media was removed and stored at −80° until TNF-α ELISA assays were performed. Samples were diluted 1:50 before running the TNF-α ELISA (kit commercially available from Sigma).

The test system of experiment [3] is EOC 13.31 microglia cells. Description: Inhibition of NO release from microglia following 24 hours pretreatment (Example 10). Conditions: for inhibition at 50 µM: Microglia. The method, then: This experiment was designed to determine if pretreatment for 24 hours with bis- and tris-dihydroxyaryl compounds changes NO inhibition previously observed with concurrent exposure of bis- and tris-dihydroxyaryl compounds. […] This study seeks to determine if pretreatment with bis- and tris-dihydroxyaryl compounds increases NO release inhibition. EOC 13.31 microglia cells were plated at 1×10^6 cells/ml in 96 well plates. After 48 hours, confluent cells were exposed to 50 μM compound (stock 10 mM in DMSO) prepared in fresh cell culture media. After 24 hours, 10 μg/ml LPS and 10 ng/ml IFNγ was added to wells directly without a media change. Cells were incubated for a further 48 hours and nitric oxide release was measured using the Griess Reaction.

Setting [4] is: single replicates, read-out: % inhibition.
[5] abbreviates: 50 uM pretreatment 24 hours, then LPS/IFNγ 48 hours, single replicates.
Setting [6] is: 50 uM pretreatment 24 hours, then LPS/IFNγ 48 hours, read-out: Avg % Inhibition.
The mark [7] stands for this setting: 50 uM pretreatment 24 hours, then LPS/IFNγ 48 hours, single replicates, read-out: % inhibition.
[8] abbreviates: 50 μM pretreatment, read-out: inhibition of NO release following pretreatment.

A word on the inhibition: it is the change of the read-out against control, counted positive when it falls. A word on the % inhibition: it is the relative decrease from the control value, in per cent. On to `O=C(c1ccc(O)c(O)c1)C(O)c1ccc(O)c(O)c1` (centres unmarked) [Compound 1, 3,4,3′,4′-tetrahydroxybenzoin], for which the inhibition at 50 µM is 18% with microglia, 18.4% in experiment [1] (read-out: Avg. % Inhibition), 16.4% in experiment [1] (setting [4]) and -17.3% in experiment [2]. Also, the “μM NO release Avg” value in experiment [1] stood at 22.038 µM. Also, the “% inhibition” value in experiment [1] (single replicates) was 20.29% and 18.62%; in experiment [2], −16.55% and −17.04% and −18.19%.

As to `O=C(c1ccc(O)c(O)c1)N1CCN(C(=O)c2ccc(O)c(O)c2)CC1` [Compound 23, 1,4-bis(3,4-dihydroxybenzoyl)piperazine], the inhibition at 50 µM in the experiment on microglia is 13%; in experiment [1] (read-out: Avg. % Inhibition), 13.4%; in experiment [1] (setting [4]), 16.9%; in experiment [2] it was -19.2%. Moreover, in experiment [1], the “μM NO release Avg” value came out at 23.394 µM. Besides, the “% inhibition” value in experiment [1] (single replicates) is 13.60% and 9.70%; in experiment [2] it was −23.78% and −15.89% and −17.96%.

For `O=C(CCc1ccc(O)c(O)c1)Nc1ccc(O)c(O)c1` [Compound 57, 3-(3,4-dihydroxyphenyl)propionic acid 3,4-dihydroxyanilide], the inhibition at 50 µM in the experiment with microglia is 14%; in experiment [1] (read-out: Avg. % Inhibition) it was 14.4%; in experiment [3] (setting [6]), 100%; in experiment [3] (setting [7]), 100%; in experiment [3] (setting [8]), greater than 75%; in experiment [2], -3.89%. The “μM NO release Avg” value in experiment [1] was 23.756 µM. Moreover, the “% inhibition” value is 16.40% and 20.74% and 5.97% in experiment [1] (single replicates); −6.36% and −3.40% and −1.92% in experiment [2]. For the same compound, the “μM NO release” value in experiment [3] (setting [5]) was determined as 0.000 µM.

On to `O=C(CCc1ccc(O)c(O)c1)NCc1ccc(O)c(O)c1` [Compound 58, 3-(3,4-dihydroxyphenyl)propionic acid 3,4-dihydroxybenzylamide], for which the inhibition at 50 µM was 4% in the experiment on microglia; 4.1% in experiment [1] (read-out: Avg. % Inhibition); 72.5% in experiment [3] (setting [6]); 69.6% in experiment [3] (setting [7]); -12.6% in experiment [2]. Besides, in experiment [1], the “μM NO release Avg” value stood at 26.605 µM. The “% inhibition” value in experiment [1] (single replicates) was 9.89% and 2.05% and 0.37%; in experiment [3] (setting [5]), 77.86% and 69.95%; in experiment [2], −13.26% and −11.95%.

Consider `O=C(C=Cc1ccc(O)c(O)c1)NCc1ccc(O)c(O)c1` [Compound 61, 3,4-dihydroxycinnamic acid 3,4-dihydroxybenzylamide], for which the inhibition at 50 µM was 21% in the experiment on microglia, 21.2% in experiment [1] (read-out: Avg. % Inhibition), 20.3% in experiment [1] (setting [4]) and -9.32% in experiment [2]. Further, the “μM NO release Avg” value in experiment [1] turned out to be 21.285 µM. Further, the “% inhibition” value in experiment [1] (single replicates) is 19.18% and 24.19%; in experiment [2] it was −3.40% and −17.04% and −7.51%. The “inhibition of NO release, in words” value in experiment [1] (50 uM, LPS/IFNγ stimulated microglia) is “effective inhibitors of NO release”.

Turning to `O=C(Nc1ccc(O)c(O)c1)C(=O)Nc1ccc(O)c(O)c1` [Compound 63, oxalic acid bis(3,4-dihydroxyanilide)], the inhibition at 50 µM is 14% in the experiment on microglia; 14.2% in experiment [1] (read-out: Avg. % Inhibition); 11.9% in experiment [1] (setting [4]); 82.1% in experiment [3] (setting [6]); 82.3% in experiment [3] (setting [7]); greater than 75% in experiment [3] (setting [8]). Besides, the inhibition at 50 µM in experiment [2] is -9.48%. The “μM NO release Avg” value in experiment [1] was 23.193 µM. In addition, the “% inhibition” value was 15.27% in experiment [1] (single replicates); 81.97% in experiment [3] (setting [5]); −11.29% and −7.18% and −9.97% in experiment [2].

For `Oc1ccc(CN(Cc2ccc(O)c(O)c2)Cc2ccc(O)c(O)c2)cc1O` [Compound 75, tris(3,4-dihydroxybenzyl)amine], the inhibition at 50 µM in the experiment with microglia came out at 16%; in experiment [1] (read-out: Avg. % Inhibition), 15.9%; in experiment [3] (setting [6]), 59.6%; in experiment [3] (setting [7]), 61.4%; in experiment [2], 1.86%. The “μM NO release Avg” value in experiment [1] was found to be 23.343 µM. The “% inhibition” value in experiment [1] (single replicates) was 24.54% and 12.06% and 10.97%; in experiment [3] (setting [5]) it was 60.46% and 56.98%; in experiment [2] it was 2.52% and −2.74% and 5.81%.

For `Oc1cc2ncc3cnc4cc(O)c(O)cc4c3c2cc1O` [Compound 85, dibenzo[c,f][2,7]napthyridine-2,3,10,11-tetraol], the inhibition at 50 µM in the experiment on microglia was 16%; in experiment [1] (read-out: Avg. % Inhibition), 15.5%; in experiment [3] (setting [6]) it was 94.9%; in experiment [3] (setting [7]) it was 93.3%; in experiment [3] (setting [8]), greater than 75%; in experiment [2], -16.8%. In experiment [1], the “μM NO release Avg” value came out at 23.445 µM. The “% inhibition” value in experiment [1] (single replicates) is 24.54% and 12.660% and 9.33%; in experiment [3] (setting [5]), 97.27% and 94.23%; in experiment [2] it was −14.41% and −19.01% and −16.88%.
